≈ marks a conversion by molar mass, not a printed value. Where a SMILES comes first, the peptide text is derived from it. Bridges are numbered along the chain shown (N, C = ends). [ ]: non-standard residue; d: D form. The star is where a group is joined. X1 = CC[C@H](C)CCCCC(=O)*; Dab = NCC[C@H](N)C(=O)O
What was measured:
E. coli ATCC 25922 = assay: microbe, parasite or virus in culture
Protocol: (§1) A positive control of a row of just the bacteria and a negative control of only the medium were included for every plate tested.
(§2) The compounds along with standard antibiotics were serially diluted 2-fold across the 96-well plates. […] A sample of each culture was then diluted 40-fold in fresh MH broth (in presence and absence of Tween) and incubated at 37°C for 2 to 3 h.
For experiments in the presence of surfactant, 2% beractant (25 mg/ml) was added to the mid-log-phase cultures and mixed gently and added to all the 96-well plates. For experiments in the presence of serum, a mixture of 50% of human serum along with 50% MHB was prepared and used throughout the experiment.

E. coli = details: literature value; cited from earlier work
over 200 strains = details: 0.002% polysorbate added; cited from earlier work
Text: Members of the lipopeptide polymyxin class of antibiotics (polymyxin B [compound 7a] and polymyxin E [or colistin, compound 7b]) are important last-line therapeutic agents against many multidrug-resistant Gram-negative bacteria ([27][–][31]). They consist of an N-terminal fatty acid side chain that is attached to a polycationic deca-peptide backbone (Fig. 1) with physicochemical properties similar to those of the lipoglycopeptides. These structural features confer amphipathicity, which is a key feature of many other cationic antimicrobial peptides (CAMPs) ([32][–][34]). As mentioned earlier, p ...

K. pneumoniae ATCC 13883 = assay: microbe, parasite or virus in culture; details: n = 2
Protocol: as §1, §2

P. aeruginosa ATCC 10145 = assay: microbe, parasite or virus in culture; details: n = 2
Protocol: as §1, §2

A. baumannii ATCC 19606 = assay: microbe, parasite or virus in culture; details: n = 2
Protocol: as §1, §2

[1] = literature values, reference given; cited from earlier work
Text: Other assay additives can affect MIC values. […] Plasma protein binding has been implicated as a major factor limiting the active free concentration of many clinically important antibiotics ([37][–][42]).

For `CC[C@H](C)CCCCC(=O)N[C@@H](CCN)C(=O)N[C@H](C(=O)N[C@@H](CCN)C(=O)N[C@H]1CCNC(=O)[C@H]([C@@H](C)O)NC(=O)[C@H](CCN)NC(=O)[C@H](CCN)NC(=O)[C@H](CC(C)C)NC(=O)[C@@H](Cc2ccccc2)NC(=O)[C@H](CCN)NC1=O)[C@@H](C)O` [Polymyxin B, polymyxin B] (X1-[Dab]T[Dab][Dab][Dab][dF]L[Dab][Dab]T; lactam 4-C (inferred); N-terminus assumed), the MIC (E. coli ATCC 25922; Corning NBS, MH + 2% LHB, 2% LS, n = 2) was ≤0.03 µg/mL, the MIC (E. coli ATCC 25922; Corning NBS, MH + 2% LHB, 50% HS, n = 2) was ≤0.03 µg/mL and the MIC (E. coli ATCC 25922; Corning NBS, MH + 2% LHB, no additive, n = 2) was ≤0.03 µg/mL. The MIC (E. coli ATCC 25922; Corning NBS, MH + T80, 2% LS, n = 2) was ≤0.03 µg/mL, the MIC (E. coli ATCC 25922; Corning NBS, MH + T80, 50% HS, n = 2) was 0.03 to 0.06 µg/mL and the MIC (E. coli ATCC 25922; Corning NBS, MH, 2% LS, n = 2) was ≤0.03 µg/mL. The MIC (E. coli ATCC 25922; Corning NBS, MH, 50% HS, n = 2) was ≤0.03 µg/mL, the MIC (E. coli ATCC 25922; Corning PS plate, MHB +0.002% T80, no further additive, n = 2) was 0.03 to 0.25 µg/mL and the MIC (E. coli ATCC 25922; Corning PS plate, MHB −T80, no additive, n = 2) was 0.06 µg/mL (≈ 0.0499 µM). It also gave an MIC (E. coli ATCC 25922; Corning PS, MH + 2% LHB, 2% LS, n = 2) of 0.06 µg/mL, an MIC (E. coli ATCC 25922; Corning PS, MH + 2% LHB, 50% HS, n = 2) of 0.03 to 0.06 µg/mL and an MIC (E. coli ATCC 25922; Corning PS, MH + 2% LHB, no additive, n = 2) of 2 to 8 µg/mL. The MIC (E. coli ATCC 25922; Corning PS, MH + T80, 2% LS, n = 2) was 0.06 to 0.125 µg/mL, the MIC (E. coli ATCC 25922; Corning PS, MH + T80, 50% HS, n = 2) was 0.03 to 0.06 µg/mL and the MIC (E. coli ATCC 25922; Corning PS, MH, 2% LS, n = 2) was 0.06 to 0.125 µg/mL. For the same molecule, the MIC (E. coli ATCC 25922; Corning PS, MH, 50% HS, n = 2) was ≤0.03 µg/mL, the MIC (E. coli ATCC 25922; Corning TC plate, MHB +0.002% T80, no further additive, n = 2) was 2 µg/mL (≈ 1.66 µM) and the MIC (E. coli ATCC 25922; Corning TC plate, MHB −T80, no additive, n = 2) was 1 to 2 µg/mL. For the same molecule, the MIC (E. coli ATCC 25922; Corning TC, MH + 2% LHB, 2% LS, n = 2) was 2 to 8 µg/mL, the MIC (E. coli ATCC 25922; Corning TC, MH + 2% LHB, 50% HS, n = 2) was 4 µg/mL and the MIC (E. coli ATCC 25922; Corning TC, MH + 2% LHB, no additive, n = 2) was 0.125 µg/mL. The MIC (E. coli ATCC 25922; Corning TC, MH + T80, 2% LS, n = 2) was 2 to 4 µg/mL, the MIC (E. coli ATCC 25922; Corning TC, MH + T80, 50% HS, n = 2) was 1 to 4 µg/mL and the MIC (E. coli ATCC 25922; Corning TC, MH, 2% LS, n = 2) was 4 µg/mL (≈ 3.32 µM). For the same molecule, the MIC (E. coli ATCC 25922; Corning TC, MH, 50% HS, n = 2) was 0.25 to 0.5 µg/mL, the “MIC” value (E. coli ATCC 25922; NBS plates) was ≤ 0.03 µg/mL and the MIC (E. coli ATCC 25922; Nunc PS plate, MHB +0.002% T80, n = 2) was 0.03 to 0.06 µg/mL. The MIC (E. coli ATCC 25922; Nunc PS plate, MHB −T80, n = 2) was 0.125 to 0.25 µg/mL, the MIC (E. coli ATCC 25922; Nunc U TC plate, MHB +0.002% T80, n = 2) was 2 to 4 µg/mL and the MIC (E. coli ATCC 25922; Nunc U TC plate, MHB −T80, n = 2) was 1 to 4 µg/mL. It also gave an MIC (E. coli ATCC 25922; Nunc flat TC plate, MHB +0.002% T80, n = 2) of 2 µg/mL (≈ 1.66 µM), an MIC (E. coli ATCC 25922; Nunc flat TC plate, MHB −T80, n = 2) of 1 µg/mL (≈ 0.831 µM) and an MIC (E. coli ATCC 25922; Trek PS plate, MHB +0.002% T80, no further additive, n = 2) of 0.03 to 0.06 µg/mL. For the same molecule, the MIC (E. coli ATCC 25922; Trek PS plate, MHB −T80, no additive, n = 2) was 0.06 to 0.125 µg/mL, the MIC (E. coli ATCC 25922; Trek PS, MH + 2% LHB, 2% LS, n = 2) was ≤0.03 µg/mL and the MIC (E. coli ATCC 25922; Trek PS, MH + 2% LHB, 50% HS, n = 2) was ≤0.03 µg/mL. For the same molecule, the MIC (E. coli ATCC 25922; Trek PS, MH + 2% LHB, no additive, n = 2) was 0.03 to 0.25 µg/mL, the MIC (E. coli ATCC 25922; Trek PS, MH + T80, 2% LS, n = 2) was 0.03 to 0.06 µg/mL and the MIC (E. coli ATCC 25922; Trek PS, MH + T80, 50% HS, n = 2) was 0.03 to 0.125 µg/mL. The MIC (E. coli ATCC 25922; Trek PS, MH, 2% LS, n = 2) was 0.5 to 1 µg/mL, the MIC (E. coli ATCC 25922; Trek PS, MH, 50% HS, n = 2) was ≤0.03 µg/mL and the “MIC (literature)” value (E. coli) was 0.25–1 ([73]) µg/ml. The “more potent MICs with surfactant present” value (over 200 strains) was 4- to 8 fold, the MIC (K. pneumoniae ATCC 13883; Corning NBS, MHB +T80) was ≤ 0.03 µg/mL and the MIC (K. pneumoniae ATCC 13883; Corning NBS, MHB -T80) was 0.03 to 0.125 µg/mL. For the same molecule, the MIC (K. pneumoniae ATCC 13883; Corning PS, MHB +T80) was 0.03 to 0.06 µg/mL, the MIC (K. pneumoniae ATCC 13883; Corning PS, MHB -T80) was 0.06 to 0.25 µg/mL and the MIC (K. pneumoniae ATCC 13883; Corning TC, MHB +T80) was 1 µg/mL (≈ 0.831 µM). It also gave an MIC (K. pneumoniae ATCC 13883; Corning TC, MHB -T80) of 1 µg/mL (≈ 0.831 µM), an MIC (P. aeruginosa ATCC 10145; Corning NBS, MHB +T80) of 0.03 to 0.125 µg/mL and an MIC (P. aeruginosa ATCC 10145; Corning NBS, MHB -T80) of 0.03 to 0.06 µg/mL. It also gave an MIC (P. aeruginosa ATCC 10145; Corning PS, MHB +T80) of 0.5 to 1 µg/mL, an MIC (P. aeruginosa ATCC 10145; Corning PS, MHB -T80) of 0.25 to 1 µg/mL and an MIC (P. aeruginosa ATCC 10145; Corning TC, MHB +T80) of 2 to 4 µg/mL. The MIC (P. aeruginosa ATCC 10145; Corning TC, MHB -T80) was 1 to 4 µg/mL, the MIC (A. baumannii ATCC 19606; Corning NBS, MHB +T80) was ≤ 0.03 µg/mL and the MIC (A. baumannii ATCC 19606; Corning NBS, MHB -T80) was ≤ 0.03 µg/mL. The MIC (A. baumannii ATCC 19606; Corning PS, MHB +T80) was ≤ 0.03 µg/mL, the MIC (A. baumannii ATCC 19606; Corning PS, MHB -T80) was 0.06 to 0.125 µg/mL and the MIC (A. baumannii ATCC 19606; Corning TC, MHB +T80) was 2 to 4 µg/mL. For the same molecule, the MIC (A. baumannii ATCC 19606; Corning TC, MHB -T80) was 0.5 to 1 µg/mL and the protein binding [1] was 50 to 60%.

Reference: PMC6325200, “Effects of Microplate Type and Broth Additives on Microdilution MIC Susceptibility Assays” (Antimicrobial Agents and Chemotherapy, 2018)
